Data set [1] in a line: Electrostatic charge measurements with a Faraday cage. Type of data set: physicochemical. The settings on record: dry nitrogen, 95% confidence. As to the method: This technique consists in placing the sample to be measured (q) in the interior of the inner sphere (a) and measuring the difference of potential induced between sphere (a) and another conductor of reference, sphere (b). The external sphere (c) is grounded in order to shield the system.
Measurements were carried out under controlled atmosphere of dry nitrogen in order to avoid the effect of ambient humidity on the electrostatic charge of the samples. Samples were introduced in glass capsules using non-conductor instrumental to avoid loses of electrostatic charge. The capsules loaded with the samples were introduced in the Faraday cage through a grounded conductor tube to avoid parasitic static charges in the glass capsule. The entry and removal of the capsules was done with a computer-controlled servo engine, in order to ensure a constant rate of introduction and removal of the capsules in each measurement to minimize the creation of static charges due to friction of the insulator elements.
Results: Several measurements with different amounts of material were carried out for each batch of each form of lurbinectedin. Before loading the capsules, they were washed and their remaining static charge was measured in order to correct the levels. Each sample was introduced and removed five times and, after each introduction, several consecutive measurements were taken in order to average any possible drift effect.
The data was fitted by lineal regression (dashed lines in FIGS. 9a and 9b) to obtain the charge density (Q/m) as the slope of the line.

The nature of data set [2]: Analytical results and impurity profile of batches of Form A and Form B of lurbinectedin. Type of data set: physicochemical. Also on record: Impurity RRT approx. 1.10-1.11 / Impurity RRT approx. 1.12 / Impurity RRT approx. 1.27-1.34 / Impurity RRT approx. 1.29-1.30 / Impurity RRT approx. 1.30-1.32 / Impurity RRT approx. 1.28-1.37 / Impurity RRT approx. 2.37 / Impurity RRT approx. 2.41-2.52 / Impurity RRT approx. 2.85 / Impurity RRT approx. 0.66-0.69 / Impurity RRT approx. 0.72-0.76: unit not given here. From the text:
Several batches of Form A of lurbinectedin were manufactured by this method.
Several batches of Form B of lurbinectedin were manufactured by this method.

Data set [3] can be described thus: Direct dissolution of lurbinectedin at 0.5 mg/mL in 0.03 M sodium lactate buffer pH 4. It counts as physicochemical. The settings on record: 0.5 mg/mL in 0.03 M sodium lactate buffer pH 4. From the text: In embodiments, the lurbinectedin to be dissolved is at least partially crystalline. The lurbinectedin to be dissolved may be in the solid state form(s) described herein.

The conditions of data set [4]: irinotecan 125 mg/m2 (Camptosar label); n=64; mean (SD); cited from earlier work.
Data set [5] in a line: Lurbinectedin plus irinotecan trial: pharmacokinetics of lurbinectedin, irinotecan and SN-38. The settings on record: combination: lurbinectedin 1.0-2.4 mg/m2 + irinotecan 75 mg/m2; n=39; mean (SD).
In the next data set the test system is SCLC. Nature of the data set: Post-hoc exploratory analysis of response in SCLC patients who had previously received immunotherapy. It counts as in vivo, human. The settings on record: individual SCLC patients, therapy before lurbinectedin. The text has this: Post-hoc exploratory analysis was done on the response in patients who had previously received immunotherapy (n=8).

Where [6] appears, read: batches of Form B of lurbinectedin, listed as 1924128-LT.
The mark [7] stands for this setting: impurity profile, batches of Form B, listed as 1924128-LT.
The mark [8] stands for this setting: batches of Form B of lurbinectedin.
Where [9] appears, read: batches of Form B of lurbinectedin, listed as 1924129-LT.
The mark [10] stands for this setting: impurity profile, batches of Form B, listed as 1924129-LT.
Where [11] appears, read: batches of Form A of lurbinectedin, listed as P04.
The mark [12] stands for this setting: impurity profile, batches of Form A, listed as P04.
Where [13] appears, read: impurity profile, batches of Form B.
[14] abbreviates: batches of Form A of lurbinectedin, listed as R05.
Setting [15] is: impurity profile, batches of Form A, listed as R05.

Values joined by “and” are separate entries in the source; they are usually repeats but may differ in a detail not shown here. Identical values can stand only once. Like-named read-outs stand apart in the source and are kept apart here. Bounds are passed on as bounds.

For `COc1ccc2[nH]c3c(c2c1)CCN[C@]31CS[C@@H]2c3c(OC(C)=O)c(C)c4c(c3[C@H](COC1=O)N1[C@@H]2[C@H]2c3c(cc(C)c(OC)c3O)C[C@@H]([C@@H]1O)N2C)OCO4` [Batch 1924128-LT], in data set [1] (listed as 1924128-LT), the “Average charge density (Q/m)” value came out at 4.3 ± 0.4 nC/g and the “Dispersion of charge density (Q/m)” value is recorded as 1.01 ± 0.3 nC/g. Also, in data set [2] (setting [6]), the “Total Impurities” value is listed as 0.4 % Area and the “Water Content” value is given as 3.0 % w/w. For the same compound, in data set [2] (setting [7]), the “Impurity RRT aprox 0.66-0.69” value is reported as 0.06 % area, the “Impurity RRT aprox 0.72-0.76” value was 0.25 % area and the “Impurity RRT aprox 0.90-0.92” value was 0.07 % area.
Regarding `COc1ccc2[nH]c3c(c2c1)CCN[C@]31CS[C@@H]2c3c(OC(C)=O)c(C)c4c(c3[C@H](COC1=O)N1[C@@H]2[C@H]2c3c(cc(C)c(OC)c3O)C[C@@H]([C@@H]1O)N2C)OCO4` [Batch 1924129-LT], in data set [1] (listed as 1924129-LT), the “Average charge density (Q/m)” value is 4.96 ± 2.0 nC/g and the “Dispersion of charge density (Q/m)” value is 3.4 ± 1.4 nC/g. For the same compound, in data set [2] (setting [8]), the “Residual Solvents Acetonitrile” value is given as “<LOQ”, the “Residual Solvents CH2Cl2” value is “<LOQ”, the “Residual Solvents Methanol” value is reported as “<LOQ” and the “Residual Solvents Pentane” value is reported as “<LOQ”. In data set [2] (setting [8]), the “Residual Solvents Total” value came to 0.0 % w/w. Also, in data set [2] (setting [9]), the “Total Impurities” value is 0.4 % Area and the “Water Content” value is listed as 4.1 % w/w. In data set [2] (setting [10]), the “Impurity RRT aprox 0.66-0.69” value worked out at 0.07 % area, the “Impurity RRT aprox 0.72-0.76” value is 0.24 % area and the “Impurity RRT aprox 0.90-0.92” value stood at 0.08 % area.
Take `COc1ccc2[nH]c3c(c2c1)CCN[C@]31CS[C@@H]2c3c(OC(C)=O)c(C)c4c(c3[C@H](COC1=O)N1[C@@H]2[C@H]2c3c(cc(C)c(OC)c3O)C[C@@H]([C@@H]1O)N2C)OCO4` [Batch P04]: in data set [1] (listed as P04), the “Average charge density (Q/m)” value stood at 43.1 ± 3.86 nC/g and the “Dispersion of charge density (Q/m)” value is 7.6 ± 2.8 nC/g. The “Residual Solvents Ethyl acetate” value in data set [2] (batches of Form A of lurbinectedin) is given as “<LOQ”. Besides, in data set [2] (setting [11]), the “Impurities Total” value came to 0.2 % Area, the “Residual Solvents Acetonitrile” value was “<LOQ”, the “Residual Solvents Dichloro-methane” value was “<LOQ” and the “Residual Solvents Hexane” value was “<LOQ”. Further, in data set [2] (setting [11]), the “Residual Solvents Methanol” value came to 1.6 % w/w, the “Residual Solvents Pentane” value was 0.5 % w/w, the “Residual Solvents Total” value turned out to be 2.1 % w/w and the “Water Content” value stood at 1.6 % w/w. Moreover, in data set [2] (setting [12]), the “Impurity RRT approx. 0.72-0.76” value is reported as 0.09 and the “Impurity RRT approx. 1.29-1.30” value is 0.10.
Regarding `COc1ccc2[nH]c3c(c2c1)CCN[C@]31CS[C@@H]2c3c(OC(C)=O)c(C)c4c(c3[C@H](COC1=O)N1[C@@H]2[C@H]2c3c(cc(C)c(OC)c3O)C[C@@H]([C@@H]1O)N2C)OCO4` [Batch R02], in data set [2] (setting [8]), the “Residual Solvents Acetonitrile” value was “<LOQ”, the “Residual Solvents CH2Cl2” value is “<LOQ”, the “Residual Solvents Pentane” value is listed as “<LOQ” and the “Residual Solvents Total” value amounted to 0.0 % w/w. Further, in data set [2] (setting [8]), the “Total Impurities” value was determined as 0.3 % Area and the “Water Content” value was found to be 2.0 % w/w. Besides, the “Impurity RRT aprox 0.72-0.76” value in data set [2] (setting [13]) was found to be 0.28 % area.
As for `COc1ccc2[nH]c3c(c2c1)CCN[C@]31CS[C@@H]2c3c(OC(C)=O)c(C)c4c(c3[C@H](COC1=O)N1[C@@H]2[C@H]2c3c(cc(C)c(OC)c3O)C[C@@H]([C@@H]1O)N2C)OCO4` [Batch R03], in data set [2] (setting [8]), the “Residual Solvents Acetonitrile” value was “<LOQ”, the “Residual Solvents CH2Cl2” value is on record as “<LOQ”, the “Residual Solvents Methanol” value was “<LOQ” and the “Residual Solvents Pentane” value is “<LOQ”. Also, in data set [2] (setting [8]), the “Residual Solvents Total” value was 0.0 % w/w, the “Total Impurities” value is recorded as 0.3 % Area and the “Water Content” value is given as 1.7 % w/w. In data set [2] (setting [13]), the “Impurity RRT aprox 0.66-0.69” value is reported as 0.05 % area and the “Impurity RRT aprox 0.72-0.76” value came out at 0.22 % area.
In the case of `COc1ccc2[nH]c3c(c2c1)CCN[C@]31CS[C@@H]2c3c(OC(C)=O)c(C)c4c(c3[C@H](COC1=O)N1[C@@H]2[C@H]2c3c(cc(C)c(OC)c3O)C[C@@H]([C@@H]1O)N2C)OCO4` [Batch R04], in data set [2] (setting [8]), the “Residual Solvents Acetonitrile” value is reported as “<LOQ”, the “Residual Solvents CH2Cl2” value is given as “<LOQ”, the “Residual Solvents Methanol” value is given as “<LOQ” and the “Residual Solvents Pentane” value was “<LOQ”. In data set [2] (setting [8]), the “Residual Solvents Total” value is 0.0 % w/w, the “Total Impurities” value is reported as 0.4 % Area and the “Water Content” value turned out to be 2.6 % w/w. Besides, in data set [2] (setting [13]), the “Impurity RRT aprox 0.66-0.69” value was found to be 0.05 % area, the “Impurity RRT aprox 0.72-0.76” value turned out to be 0.26 % area and the “Impurity RRT aprox 1.10-1.11” value amounted to 0.07 % area.
Turning to `COc1ccc2[nH]c3c(c2c1)CCN[C@]31CS[C@@H]2c3c(OC(C)=O)c(C)c4c(c3[C@H](COC1=O)N1[C@@H]2[C@H]2c3c(cc(C)c(OC)c3O)C[C@@H]([C@@H]1O)N2C)OCO4` [Batch R05], in data set [1] (listed as R05), the “Average charge density (Q/m)” value was 64.02 ± 7.98 nC/g and the “Dispersion of charge density (Q/m)” value worked out at 15.23 ± 5.64 nC/g. In data set [2] (setting [14]), the “Impurities Total” value is on record as 0.4 % Area, the “Residual Solvents Acetonitrile” value is on record as “<LOQ”, the “Residual Solvents Dichloro-methane” value was “<LOQ” and the “Residual Solvents Hexane” value is given as “<LOQ”. Further, in data set [2] (setting [14]), the “Residual Solvents Methanol” value was determined as 2.2 % w/w, the “Residual Solvents Pentane” value is reported as 0.3 % w/w, the “Residual Solvents Total” value was found to be 2.5 % w/w and the “Water Content” value worked out at 1.1 % w/w. Besides, the “Impurity RRT approx. 2.37” value in data set [2] (impurity profile, batches of Form A) is listed as 0.13. Moreover, in data set [2] (setting [15]), the “Impurity RRT approx. 0.72-0.76” value amounted to 0.10, the “Impurity RRT approx. 1.10-1.11” value is on record as 0.09 and the “Impurity RRT approx. 1.29-1.30” value came out at 0.05.
As to `COc1ccc2[nH]c3c(c2c1)CCN[C@]31CS[C@@H]2c3c(OC(C)=O)c(C)c4c(c3[C@H](COC1=O)N1[C@@H]2[C@H]2c3c(cc(C)c(OC)c3O)C[C@@H]([C@@H]1O)N2C)OCO4` [Form A of lurbinectedin], in data set [3], the “Time to complete direct dissolution” value was “approximately 30 minutes”.
Consider `CCc1c2c(nc3ccc(O)cc13)-c1cc3c(c(=O)n1C2)COC(=O)[C@]3(O)CC` [SN-38], for which, in data set [4], the Cmax is 26.3 (11.9) ug/L and the HL is reported as 21.0 (20) h. In data set [5], the CL is listed as 810.3 (574) L/h, the Cmax is listed as 18.1 (7.7) ug/L, the HL is recorded as 18.6 (9.1) h and the Vz was 18232.3 (8208.4) L.
`CCc1c2c(nc3ccc(OC(=O)N4CCC(N5CCCCC5)CC4)cc13)-c1cc3c(c(=O)n1C2)COC(=O)[C@]3(O)CC` [irinotecan, reference compound]: in data set [4], the HL is listed as 11.7 (9) h.
As for Nivolumab, the “Last prior therapy: TTP” value in the data set on SCLC (resistant disease) is 2.2 months and 4.1 months and 2.5 months; in the data set on SCLC (sensitive disease) it was 1.8 months and 1.4 months.
